{"source": "paper PMC6407913", "about": "“DREADD Agonist 21 Is an Effective Agonist for Muscarinic-Based DREADDs in Vitro and in Vivo” (ACS Pharmacology & Translational Science, 2018)", "assay_type_in_all_cases": "cell-based", "key": {"[1]": {"target": "T1, 318 nonolfactory human GPCRs (Homo sapiens, UniProt Q15077)", "T1 construct": "expressed in transfected cells; host or cells: HTLA cells, transient", "details": "P2RY6; C21 5 µM"}, "[2]": {"target": "T2, 318 nonolfactory human GPCRs (Homo sapiens, UniProt P20309)", "T2 construct": "expressed in transfected cells; host or cells: HTLA cells, transient", "details": "CHRM3; C21 5 µM"}, "[3]": {"target": "T3, 318 nonolfactory human GPCRs (Homo sapiens, UniProt P48039)", "T3 construct": "expressed in transfected cells; host or cells: HTLA cells, transient", "details": "MTNR1A; C21 5 µM"}, "[4]": {"target": "T4, 318 nonolfactory human GPCRs (Homo sapiens, UniProt Q15391)", "T4 construct": "expressed in transfected cells; host or cells: HTLA cells, transient", "T4 sequence (Q15391 whole entry)": "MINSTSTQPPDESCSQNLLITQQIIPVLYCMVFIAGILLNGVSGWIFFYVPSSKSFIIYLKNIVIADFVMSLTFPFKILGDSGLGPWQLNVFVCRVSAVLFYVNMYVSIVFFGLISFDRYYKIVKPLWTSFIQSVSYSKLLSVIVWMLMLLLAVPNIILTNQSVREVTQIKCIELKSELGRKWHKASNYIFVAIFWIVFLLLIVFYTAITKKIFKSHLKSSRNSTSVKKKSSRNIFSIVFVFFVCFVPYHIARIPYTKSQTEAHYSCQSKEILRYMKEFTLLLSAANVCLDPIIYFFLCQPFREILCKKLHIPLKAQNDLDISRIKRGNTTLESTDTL", "details": "P2RY14; C21 5 µM"}, "[5]": {"target": "T5, 318 nonolfactory human GPCRs (Homo sapiens, UniProt P47901)", "T5 construct": "expressed in transfected cells; host or cells: HTLA cells, transient", "details": "AVPR1B; C21 5 µM"}, "[6]": {"target": "T6, 318 nonolfactory human GPCRs (Homo sapiens, UniProt P30939)", "T6 construct": "expressed in transfected cells; host or cells: HTLA cells, transient", "details": "HTR1F; C21 5 µM"}, "[7]": {"target": "T7, 318 nonolfactory human GPCRs (Homo sapiens, UniProt Q9BXA5)", "T7 construct": "expressed in transfected cells; host or cells: HTLA cells, transient", "details": "SUCNR1; C21 5 µM"}, "[8]": {"target": "T8, 318 nonolfactory human GPCRs (Homo sapiens, UniProt O00155)", "T8 construct": "expressed in transfected cells; host or cells: HTLA cells, transient", "details": "GPR25; C21 5 µM"}, "[9]": {"target": "T9, 318 nonolfactory human GPCRs (Homo sapiens, UniProt P48146)", "T9 construct": "expressed in transfected cells; host or cells: HTLA cells, transient", "details": "NPBW2; C21 5 µM"}, "[10]": {"target": "T10, 318 nonolfactory human GPCRs (Homo sapiens, UniProt Q9GZN0)", "T10 construct": "expressed in transfected cells; host or cells: HTLA cells, transient", "details": "GPR88; C21 5 µM"}, "[11]": {"target": "T11, 318 nonolfactory human GPCRs (Homo sapiens, UniProt Q9H244)", "T11 construct": "expressed in transfected cells; host or cells: HTLA cells, transient", "details": "P2RY12; C21 5 µM"}, "[12]": {"target": "T12, 318 nonolfactory human GPCRs (Homo sapiens, UniProt Q86Y34)", "T12 construct": "expressed in transfected cells; host or cells: HTLA cells, transient", "T12 sequence (Q86Y34 21-549)": "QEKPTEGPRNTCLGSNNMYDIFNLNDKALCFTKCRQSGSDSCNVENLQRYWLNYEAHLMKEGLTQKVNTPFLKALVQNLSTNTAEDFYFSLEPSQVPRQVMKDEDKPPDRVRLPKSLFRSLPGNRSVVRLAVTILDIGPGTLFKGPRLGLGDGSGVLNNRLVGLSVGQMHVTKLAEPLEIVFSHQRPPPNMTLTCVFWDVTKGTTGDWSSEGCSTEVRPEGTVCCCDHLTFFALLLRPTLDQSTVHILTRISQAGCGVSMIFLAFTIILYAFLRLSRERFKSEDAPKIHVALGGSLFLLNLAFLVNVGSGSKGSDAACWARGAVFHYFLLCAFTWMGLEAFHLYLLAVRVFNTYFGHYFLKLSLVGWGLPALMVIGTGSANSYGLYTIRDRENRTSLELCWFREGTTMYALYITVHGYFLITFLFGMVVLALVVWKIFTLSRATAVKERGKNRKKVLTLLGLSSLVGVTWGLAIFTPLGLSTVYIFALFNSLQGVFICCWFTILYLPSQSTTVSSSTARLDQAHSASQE", "details": "GPR97; C21 5 µM"}, "[13]": {"target": "T13, 318 nonolfactory human GPCRs (Homo sapiens, UniProt P25024)", "T13 construct": "expressed in transfected cells; host or cells: HTLA cells, transient", "T13 sequence (P25024 whole entry)": "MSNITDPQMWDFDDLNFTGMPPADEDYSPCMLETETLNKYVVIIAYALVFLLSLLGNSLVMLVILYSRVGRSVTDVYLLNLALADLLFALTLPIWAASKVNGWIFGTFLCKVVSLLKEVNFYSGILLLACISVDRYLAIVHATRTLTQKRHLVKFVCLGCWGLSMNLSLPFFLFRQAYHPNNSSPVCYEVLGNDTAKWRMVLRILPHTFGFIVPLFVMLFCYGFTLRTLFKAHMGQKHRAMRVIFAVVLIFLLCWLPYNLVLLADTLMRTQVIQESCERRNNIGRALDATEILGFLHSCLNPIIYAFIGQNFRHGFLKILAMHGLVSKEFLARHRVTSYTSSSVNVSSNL", "details": "CXCR1; C21 5 µM"}, "[14]": {"target": "T14, 318 nonolfactory human GPCRs (Homo sapiens, UniProt P25105)", "T14 construct": "expressed in transfected cells; host or cells: HTLA cells, transient", "details": "PTAFR; C21 5 µM"}, "[15]": {"target": "318 nonolfactory human GPCRs (Homo sapiens, UniProt P14416)", "sequence (P14416 whole entry)": "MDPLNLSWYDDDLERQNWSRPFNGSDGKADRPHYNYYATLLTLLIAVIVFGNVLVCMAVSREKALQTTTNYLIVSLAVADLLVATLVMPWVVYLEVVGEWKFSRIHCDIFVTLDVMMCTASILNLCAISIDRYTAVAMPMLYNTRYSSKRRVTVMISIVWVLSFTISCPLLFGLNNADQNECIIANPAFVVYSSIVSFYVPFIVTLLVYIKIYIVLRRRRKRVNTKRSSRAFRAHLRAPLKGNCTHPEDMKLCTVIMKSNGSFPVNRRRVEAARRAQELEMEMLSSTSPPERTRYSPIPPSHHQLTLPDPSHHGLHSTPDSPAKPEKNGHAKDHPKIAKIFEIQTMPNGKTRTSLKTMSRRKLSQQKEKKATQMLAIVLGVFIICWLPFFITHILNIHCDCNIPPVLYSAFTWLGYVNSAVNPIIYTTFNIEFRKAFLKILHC", "details": "DRD2; C21 5 µM"}, "[16]": {"target": "T15, 318 nonolfactory human GPCRs (Homo sapiens, UniProt Q9BZJ6)", "T15 construct": "expressed in transfected cells; host or cells: HTLA cells, transient", "T15 sequence (Q9BZJ6 whole entry)": "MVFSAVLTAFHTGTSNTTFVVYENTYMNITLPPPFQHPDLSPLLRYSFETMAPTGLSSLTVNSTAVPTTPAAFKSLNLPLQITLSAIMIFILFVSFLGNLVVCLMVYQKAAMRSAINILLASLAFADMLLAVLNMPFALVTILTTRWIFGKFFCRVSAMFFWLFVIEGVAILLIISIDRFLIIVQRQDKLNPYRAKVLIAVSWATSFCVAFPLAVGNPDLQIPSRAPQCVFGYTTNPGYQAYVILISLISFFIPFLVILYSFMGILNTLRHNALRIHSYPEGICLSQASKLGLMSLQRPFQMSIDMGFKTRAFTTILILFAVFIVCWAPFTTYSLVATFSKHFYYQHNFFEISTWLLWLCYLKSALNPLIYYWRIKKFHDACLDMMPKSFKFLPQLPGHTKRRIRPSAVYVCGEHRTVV", "details": "GPR63; C21 5 µM"}, "[17]": {"target": "T16, 318 nonolfactory human GPCRs (Homo sapiens, UniProt O95838)", "T16 construct": "expressed in transfected cells; host or cells: HTLA cells, transient", "details": "GLP2R; C21 5 µM"}, "[18]": {"target": "T17, 318 nonolfactory human GPCRs (Homo sapiens, UniProt P29371)", "T17 construct": "expressed in transfected cells; host or cells: HTLA cells, transient", "T17 sequence (P29371 whole entry)": "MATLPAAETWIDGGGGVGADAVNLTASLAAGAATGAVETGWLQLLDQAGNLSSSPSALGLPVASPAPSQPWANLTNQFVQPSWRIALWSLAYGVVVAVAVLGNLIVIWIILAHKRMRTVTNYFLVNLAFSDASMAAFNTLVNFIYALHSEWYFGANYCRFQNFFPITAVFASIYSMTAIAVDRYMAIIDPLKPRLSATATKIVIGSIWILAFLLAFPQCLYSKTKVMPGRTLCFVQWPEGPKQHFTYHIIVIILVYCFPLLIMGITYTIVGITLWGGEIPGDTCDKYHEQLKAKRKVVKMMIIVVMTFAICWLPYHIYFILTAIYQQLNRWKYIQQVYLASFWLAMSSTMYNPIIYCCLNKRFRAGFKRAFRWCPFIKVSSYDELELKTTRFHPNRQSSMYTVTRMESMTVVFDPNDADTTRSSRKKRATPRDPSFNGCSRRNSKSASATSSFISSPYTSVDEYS", "details": "TACR3; C21 5 µM"}, "[19]": {"target": "318 nonolfactory human GPCRs (Homo sapiens, UniProt P21918)", "details": "DRD5; C21 5 µM"}, "[20]": {"target": "T18, 318 nonolfactory human GPCRs (Homo sapiens, UniProt Q8NDV2)", "T18 construct": "expressed in transfected cells; host or cells: HTLA cells, transient", "details": "GPR26; C21 5 µM"}, "[21]": {"target": "T19, 318 nonolfactory human GPCRs (Homo sapiens, UniProt P30559)", "T19 construct": "expressed in transfected cells; host or cells: HTLA cells, transient", "T19 sequence (P30559 whole entry)": "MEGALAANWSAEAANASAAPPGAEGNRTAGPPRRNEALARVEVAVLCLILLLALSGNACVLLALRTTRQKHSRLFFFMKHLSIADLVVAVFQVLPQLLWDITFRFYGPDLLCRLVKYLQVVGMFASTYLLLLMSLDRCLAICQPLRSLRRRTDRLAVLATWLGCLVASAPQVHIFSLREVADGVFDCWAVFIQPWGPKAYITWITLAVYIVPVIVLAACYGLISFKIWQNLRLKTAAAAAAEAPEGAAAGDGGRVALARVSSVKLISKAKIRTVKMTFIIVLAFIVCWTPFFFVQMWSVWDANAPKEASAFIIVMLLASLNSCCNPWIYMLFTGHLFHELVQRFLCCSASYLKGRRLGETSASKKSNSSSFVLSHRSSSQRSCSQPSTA", "details": "OXTR; C21 5 µM"}, "[22]": {"target": "318 nonolfactory human GPCRs (Homo sapiens, UniProt Q9UPC5)", "sequence (Q9UPC5 whole entry)": "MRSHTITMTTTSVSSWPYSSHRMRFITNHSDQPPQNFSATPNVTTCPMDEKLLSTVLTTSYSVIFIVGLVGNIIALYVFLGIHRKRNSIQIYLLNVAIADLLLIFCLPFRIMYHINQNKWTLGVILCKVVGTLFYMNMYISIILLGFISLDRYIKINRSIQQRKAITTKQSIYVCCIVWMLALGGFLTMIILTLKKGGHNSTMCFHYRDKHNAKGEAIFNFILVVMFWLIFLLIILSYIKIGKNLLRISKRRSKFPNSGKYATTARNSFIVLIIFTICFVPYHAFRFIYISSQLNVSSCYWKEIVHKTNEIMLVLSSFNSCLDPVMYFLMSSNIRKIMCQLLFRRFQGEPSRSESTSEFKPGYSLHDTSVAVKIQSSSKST", "details": "GPR34; C21 5 µM"}, "[23]": {"target": "T20, 318 nonolfactory human GPCRs (Homo sapiens, UniProt Q96LB1)", "T20 construct": "expressed in transfected cells; host or cells: HTLA cells, transient", "details": "MRGPRX2; C21 5 µM"}, "[24]": {"target": "T21, 318 nonolfactory human GPCRs (Homo sapiens, UniProt P32245)", "T21 construct": "expressed in transfected cells; host or cells: HTLA cells, transient", "details": "MC4R; C21 5 µM"}, "[25]": {"target": "T22, 318 nonolfactory human GPCRs (Homo sapiens, UniProt P35410)", "T22 construct": "expressed in transfected cells; host or cells: HTLA cells, transient", "details": "MAS1L; C21 5 µM"}, "[26]": {"target": "318 nonolfactory human GPCRs (Homo sapiens, UniProt P35462)", "sequence (P35462 whole entry)": "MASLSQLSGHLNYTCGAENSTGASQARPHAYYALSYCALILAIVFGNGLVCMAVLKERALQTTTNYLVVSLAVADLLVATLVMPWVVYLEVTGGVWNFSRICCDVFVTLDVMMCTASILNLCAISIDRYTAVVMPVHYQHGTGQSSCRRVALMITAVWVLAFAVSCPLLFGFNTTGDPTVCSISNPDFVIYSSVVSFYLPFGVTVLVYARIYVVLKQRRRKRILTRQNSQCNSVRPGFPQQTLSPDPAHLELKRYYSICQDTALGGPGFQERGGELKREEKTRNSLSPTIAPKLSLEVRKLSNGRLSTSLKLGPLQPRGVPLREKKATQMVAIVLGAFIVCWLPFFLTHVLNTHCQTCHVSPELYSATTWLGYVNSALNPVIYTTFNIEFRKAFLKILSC", "details": "DRD3; C21 5 µM"}, "[27]": {"target": "T23, 318 nonolfactory human GPCRs (Homo sapiens, UniProt Q969N4)", "T23 construct": "expressed in transfected cells; host or cells: HTLA cells, transient", "details": "TAAR8; C21 5 µM"}, "[28]": {"target": "T24, 318 nonolfactory human GPCRs (Homo sapiens, UniProt Q14416)", "T24 construct": "expressed in transfected cells; host or cells: HTLA cells, transient", "T24 sequence (Q14416 19-872)": "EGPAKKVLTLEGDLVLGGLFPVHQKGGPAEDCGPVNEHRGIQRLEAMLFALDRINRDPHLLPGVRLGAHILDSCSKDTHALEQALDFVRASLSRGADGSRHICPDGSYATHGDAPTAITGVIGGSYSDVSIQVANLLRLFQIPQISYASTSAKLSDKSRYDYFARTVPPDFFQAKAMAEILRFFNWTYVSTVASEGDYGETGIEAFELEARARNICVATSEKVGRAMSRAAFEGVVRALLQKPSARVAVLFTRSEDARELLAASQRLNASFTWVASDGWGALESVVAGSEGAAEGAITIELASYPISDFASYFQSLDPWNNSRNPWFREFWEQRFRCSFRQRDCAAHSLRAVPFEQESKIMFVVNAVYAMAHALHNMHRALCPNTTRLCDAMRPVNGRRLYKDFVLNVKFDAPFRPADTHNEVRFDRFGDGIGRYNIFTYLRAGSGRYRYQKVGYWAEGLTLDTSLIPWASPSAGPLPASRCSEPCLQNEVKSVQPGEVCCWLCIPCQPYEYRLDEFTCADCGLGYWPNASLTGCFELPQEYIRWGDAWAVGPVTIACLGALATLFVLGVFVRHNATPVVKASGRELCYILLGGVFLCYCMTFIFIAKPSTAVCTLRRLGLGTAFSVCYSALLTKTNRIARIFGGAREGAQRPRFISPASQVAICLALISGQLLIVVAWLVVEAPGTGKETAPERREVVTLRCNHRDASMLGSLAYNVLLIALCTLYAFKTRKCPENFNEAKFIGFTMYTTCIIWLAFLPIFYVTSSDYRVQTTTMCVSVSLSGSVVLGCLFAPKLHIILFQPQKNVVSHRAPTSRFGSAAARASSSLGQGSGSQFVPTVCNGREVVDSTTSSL", "details": "GMR2; C21 5 µM"}, "[29]": {"target": "318 nonolfactory human GPCRs (Homo sapiens, UniProt O95977)", "details": "S1PR4; C21 5 µM"}, "[30]": {"target": "T25, 318 nonolfactory human GPCRs (Homo sapiens, UniProt P35368)", "T25 construct": "expressed in transfected cells; host or cells: HTLA cells, transient", "details": "ADRA1B; C21 5 µM"}, "[31]": {"target": "T26, 318 nonolfactory human GPCRs (Homo sapiens, UniProt Q9BPV8)", "T26 construct": "expressed in transfected cells; host or cells: HTLA cells, transient", "details": "P2RY13; C21 5 µM"}, "[32]": {"target": "T27, 318 nonolfactory human GPCRs (Homo sapiens, UniProt Q96P67)", "T27 construct": "expressed in transfected cells; host or cells: HTLA cells, transient", "T27 sequence (Q96P67 whole entry)": "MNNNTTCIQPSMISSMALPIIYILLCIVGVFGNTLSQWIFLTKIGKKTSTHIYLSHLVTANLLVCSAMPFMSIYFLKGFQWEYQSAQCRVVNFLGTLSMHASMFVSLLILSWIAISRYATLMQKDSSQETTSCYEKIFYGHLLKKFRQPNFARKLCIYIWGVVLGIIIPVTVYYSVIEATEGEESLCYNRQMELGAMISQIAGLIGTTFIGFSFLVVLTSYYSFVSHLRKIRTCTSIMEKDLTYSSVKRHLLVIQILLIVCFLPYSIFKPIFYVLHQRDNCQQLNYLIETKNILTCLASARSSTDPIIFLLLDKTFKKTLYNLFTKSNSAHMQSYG", "details": "GPR82; C21 5 µM"}, "[33]": {"target": "T28, 318 nonolfactory human GPCRs (Homo sapiens, UniProt O14842)", "T28 construct": "expressed in transfected cells; host or cells: HTLA cells, transient", "details": "FFA1; C21 5 µM"}, "[34]": {"target": "T29, 318 nonolfactory human GPCRs (Homo sapiens, UniProt Q96P66)", "T29 construct": "expressed in transfected cells; host or cells: HTLA cells, transient", "details": "GPR101; C21 5 µM"}}, "note": "Where “and” joins values, the source holds several entries; their conditions need not be identical. Equal values may be shown once.", "data": [{"smiles": "c1ccc2c(c1)N=C(N1CCNCC1)c1ccccc1N2", "note": "[C21, 11-(1-piperazinyl)-5H-dibenzo[b,e][1,4]diazepine]", "values": [{"measurement": "FOLD OVER BASAL", "setting": "[1]", "result": "1.4 fold and 0.8 fold and 1.3 fold"}, {"measurement": "FOLD OVER BASAL", "setting": "[2]", "result": "3.1 fold and 3.7 fold and 2.6 fold and 3.4 fold"}, {"measurement": "FOLD OVER BASAL", "setting": "[3]", "result": "1.1 fold and 0.9 fold and 1 fold"}, {"measurement": "FOLD OVER BASAL", "setting": "[4]", "result": "0.9 fold and 0.7 fold and 1.1 fold and 0.8 fold"}, {"measurement": "FOLD OVER BASAL", "setting": "[5]", "result": "0.4 fold and 0.6 fold and 0.7 fold"}, {"measurement": "FOLD OVER BASAL", "setting": "[6]", "result": "1.1 fold and 1 fold and 0.8 fold"}, {"measurement": "FOLD OVER BASAL", "setting": "[7]", "result": "0.6 fold and 0.7 fold"}, {"measurement": "FOLD OVER BASAL", "setting": "[8]", "result": "0.9 fold and 1.1 fold"}, {"measurement": "FOLD OVER BASAL", "setting": "[9]", "result": "1.1 fold and 1.3 fold and 1.4 fold"}, {"measurement": "FOLD OVER BASAL", "setting": "[10]", "result": "1.1 fold and 1.9 fold and 1.5 fold"}, {"measurement": "FOLD OVER BASAL", "setting": "[11]", "result": "0.6 fold and 1 fold and 0.5 fold and 0.8 fold"}, {"measurement": "FOLD OVER BASAL", "setting": "[12]", "result": "0.6 fold and 0.5 fold and 0.7 fold"}, {"measurement": "FOLD OVER BASAL", "setting": "[13]", "result": "0.6 fold and 1 fold and 0.8 fold and 1.1 fold"}, {"measurement": "FOLD OVER BASAL", "setting": "[14]", "result": "0.8 fold and 0.7 fold and 1.1 fold"}, {"measurement": "FOLD OVER BASAL", "setting": "[15]", "result": "8.7 fold and 13.6 fold and 9.4 fold and 16.1 fold"}, {"measurement": "FOLD OVER BASAL", "setting": "[16]", "result": "0.6 fold and 0.5 fold and 0.9 fold"}, {"measurement": "FOLD OVER BASAL", "setting": "[17]", "result": "0.7 fold and 0.8 fold and 0.5 fold and 0.9 fold"}, {"measurement": "FOLD OVER BASAL", "setting": "[18]", "result": "1.2 fold and 0.8 fold and 0.6 fold and 0.7 fold"}, {"measurement": "FOLD OVER BASAL", "setting": "[19]", "result": "0.8 fold and 0.7 fold"}, {"measurement": "FOLD OVER BASAL", "setting": "[20]", "result": "1.5 fold and 0.8 fold and 1 fold and 0.9 fold"}, {"measurement": "FOLD OVER BASAL", "setting": "[21]", "result": "0.8 fold and 0.5 fold and 1 fold"}, {"measurement": "FOLD OVER BASAL", "setting": "[22]", "result": "1.2 fold and 1.1 fold and 1.4 fold"}, {"measurement": "FOLD OVER BASAL", "setting": "[23]", "result": "1.3 fold and 1.6 fold and 1.5 fold"}, {"measurement": "FOLD OVER BASAL", "setting": "[24]", "result": "1.2 fold and 0.6 fold"}, {"measurement": "FOLD OVER BASAL", "setting": "[25]", "result": "0.6 fold and 1 fold"}, {"measurement": "FOLD OVER BASAL", "setting": "[26]", "result": "3.6 fold and 4.2 fold and 3.3 fold and 5.4 fold"}, {"measurement": "FOLD OVER BASAL", "setting": "[27]", "result": "0.5 fold and 0.8 fold"}, {"measurement": "FOLD OVER BASAL", "setting": "[28]", "result": "1.3 fold and 1.2 fold and 0.7 fold and 1.1 fold"}, {"measurement": "FOLD OVER BASAL", "setting": "[29]", "result": "1.3 fold and 1 fold and 0.7 fold and 1.1 fold"}, {"measurement": "FOLD OVER BASAL", "setting": "[30]", "result": "1 fold and 0.8 fold and 1.1 fold and 0.7 fold"}, {"measurement": "FOLD OVER BASAL", "setting": "[31]", "result": "0.8 fold and 1 fold and 1.2 fold"}, {"measurement": "FOLD OVER BASAL", "setting": "[32]", "result": "1 fold and 0.9 fold and 1.1 fold"}, {"measurement": "FOLD OVER BASAL", "setting": "[33]", "result": "0.4 fold and 0.7 fold and 0.8 fold"}, {"measurement": "FOLD OVER BASAL", "setting": "[34]", "result": "1.2 fold and 1 fold and 0.9 fold"}]}]}
